From US12209072B2, “Cyclopentyl acids as LPA antagonists” (BRISTOL-MYERS SQUIBB COMPANY, priority 2018, dated 2025) come the findings set out here.

Each structure is given as a SMILES string.

The target of the assay is T1, human LPA1 (Homo sapiens, UniProt Q92633).
T1 construct: expressed in transfected cells; host or cells: Chinese hamster ovary (CHO) cells
T1 sequence (Q92633 whole entry): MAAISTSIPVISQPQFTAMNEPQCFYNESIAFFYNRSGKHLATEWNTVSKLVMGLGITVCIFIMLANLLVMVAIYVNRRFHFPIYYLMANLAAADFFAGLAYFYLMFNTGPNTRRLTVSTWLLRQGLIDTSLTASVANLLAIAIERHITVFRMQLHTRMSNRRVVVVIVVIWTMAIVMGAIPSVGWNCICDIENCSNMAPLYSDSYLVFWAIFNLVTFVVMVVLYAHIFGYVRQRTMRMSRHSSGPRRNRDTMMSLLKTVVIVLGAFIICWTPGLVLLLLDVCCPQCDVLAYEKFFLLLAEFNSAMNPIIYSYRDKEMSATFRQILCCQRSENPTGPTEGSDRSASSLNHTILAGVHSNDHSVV
The assay can be described thus: LPA1 functional antagonist assay (LPA-induced calcium flux). Format: cell-based. To be noted: CHO cells overexpressing human LPA1; inhibition of calcium flux induced by 10 nM LPA; read-out: hLPA1 IC50. The protocol:
The effectiveness of compounds of the present invention as LPA1 inhibitors can be determined in an LPA1 functional antagonist assay as follows:
Chinese hamster ovary cells overexpressing human LPA1 were plated overnight (15,000 cells/well) in poly-D-lysine coated 384-well microplates (Greiner bio-one, Cat #781946) in DMEM/F12 medium (Gibco, Cat #11039). Following overnight culture, cells were loaded with calcium indicator dye (AAT Bioquest Inc, Cat #34601) for 30 minutes at 37° C. The cells were then equilibrated to room temperature for 30 minutes before the assay. Test compounds solubilized in DMSO were transferred to 384 well non-binding surface plates (Corning, Cat #3575) using the Labcyte Echo acoustic dispense and diluted with assay buffer [1×HBSS with calcium/magnesium (Gibco Cat #14025-092), 20 mM HEPES (Gibco Cat #15630-080) and 0.1% fatty acid free BSA (Sigma Cat #A9205)] to a final concentration of 0.5% DMSO. Diluted compounds were added to the cells by FDSS6000 (Hamamatsu) at final concentrations ranging from 0.08 nM to 5 μM. and were then incubated for 20 min at room temperature at which time LPA (Avanti Polar Lipids Cat #857130C) was added at final concentrations of 10 nM to stimulate the cells. The compound IC50 value was defined as the concentration of test compound which inhibited 50% of the calcium flux induced by LPA alone. IC50 values were determined by fitting data to a 4-parameter logistic equation (GraphPad Prism, San Diego CA).
In general, IC50 refers to the point on the concentration scale where inhibition reaches its midpoint. Regarding `CCCN(C)C(=O)OCc1c(-c2ccc(O[C@H]3CC[C@H](CC(=O)O)C3)c(C)n2)nnn1C` (racemic) [Example 54, (±)-trans-2-[3-({2-methyl-6-[1-methyl-5-({[methyl(propyl)carba-moyl]oxy}methyl)-1H-1,2,3-triazol-4-yl]pyridin-3-yl}oxy)cyclopentyl]acetic acid], the IC50 is 292 nM.
`Cc1nc(-c2nnn(C)c2COC(=O)N(C)CC(C)C)ccc1O[C@H]1CC[C@H](CC(=O)O)C1` (racemic) [Example 55, (±)-trans-2-[3-({2-methyl-6-[1-methyl-5-({[methyl(2-methylpropyl)carbamoyl]oxy}methyl)-1H-1,2,3-triazol-4-yl]pyridin-3-yl}oxy)cyclo-pentyl]acetic acid]: the IC50 came out at 135 nM.
Take `Cc1nc(-c2nnn(C)c2COC(=O)N(C)C2CCCC2)ccc1O[C@H]1CC[C@H](CC(=O)O)C1` (racemic) [Example 56, (±)-trans-2-[3-({6-[5-({[cyclopentyl(methyl)carbamoyl]oxy}methyl)-1-methyl-1H-1,2,3-triazol-4-yl]-2-methylpyridin-3-yl}oxy)cyclopentyl]acetic acid]: the IC50 was found to be 89 nM.
The value for `Cc1nc(-c2nnn(C)c2COC(=O)N(C)C2(C)CC2)ccc1O[C@H]1CC[C@H](CC(=O)O)C1` (racemic) [Example 57, (±)-trans-2-[3-({2-methyl-6-[1-methyl-5-({[methyl(1-methylcyclo-propyl)carbamoyl]oxy}methyl)-1H-1,2,3-triazol-4-yl]pyridin-3-yl}oxy)cyclopentyl]acetic acid] was 295 nM.
As to `CCC1(N(C)C(=O)OCc2c(-c3ccc(O[C@H]4CC[C@H](CC(=O)O)C4)c(C)n3)nnn2C)CC1` (racemic) [Example 58, (±)-trans-2-[3-({6-[5-({[(1-ethylcyclo-propyl)(methyl)carbamoyl]oxy}methyl)-1-methyl-1H-1,2,3-triazol-4-yl]-2-methylpyridin-3-yl}oxy)cyclo-pentyl]acetic acid], the IC50 is 479 nM.
Regarding `Cc1nc(-c2nnn(C)c2CNC(=O)OCC2(C)CC2)ccc1O[C@H]1CC[C@H](CC(=O)O)C1` (racemic) [Example 59, (±)-trans-2-[3-[(2-methyl-6-{1-methyl-5-[({[(1-methylcyclopropyl)methoxy]carbonyl}amino)methyl]-1H-1,2,3-triazol-4-yl}pyridin-3-yl)oxy]cyclo-pentyl]acetic acid], the IC50 turned out to be 276 nM.
The value for `CCC1(COC(=O)NCc2c(-c3ccc(O[C@H]4CC[C@H](CC(=O)O)C4)c(C)n3)nnn2C)CC1` (racemic) [Example 60, (±)-trans-2-[3-[(6-{5-[({[(1-ethyl-cyclopropyl)methoxy]carbonyl}amino)methyl]-1-methyl-1H-1,2,3-triazol-4-yl}-2-methylpyridin-3-yl)oxy]cyclopentyl]acetic acid] was 264 nM; that for `Cc1nc(-c2nnn(C)c2COC(=O)N2CCC3(CCC3)C2)ccc1O[C@H]1CC[C@H](CC(=O)O)C1` (racemic) [Example 61, (±)-trans-2-[3-({6-[5-({6-azaspiro[3.4]octane-6-carbonyloxy}methyl)-1-methyl-1H-1,2,3-triazol-4-yl]-2-methylpyridin-3-yl}oxy)cyclopentyl]acetic acid] was 444 nM; that for `CCCC1(COC(=O)NCc2c(-c3ccc(O[C@H]4CC[C@H](CC(=O)O)C4)c(C)n3)nnn2C)CCC1` (racemic) [Example 62, (±)-trans-2-[3-[(2-methyl-6-{1-methyl-5-[({[(1-propylcyclobutyl)methoxy]carbonyl}amino)methyl]-1H-1,2,3-triazol-4-yl}pyridin-3-yl)oxy]cyclo-pentyl]acetic acid] was 183 nM.
With `Cc1nc(-c2nnn(C)c2COC(=O)N(C)C2CCC2)ccc1O[C@H]1CC[C@H](CC(=O)O)C1` (racemic) [Example 63, (±)-trans-2-[3-({6-[5-({[cyclobutylmethyl-1H-1,2,3-triazol-4-yl]-2-(methyl)carbamoyl]oxy}methyl)-1-methylpyridin-3-yl}oxy)cyclopentyl]acetic acid], the IC50 came out at 96 nM.
Then `Cc1nc(-c2nnn(C)c2COC(=O)N(C)CCCCF)ccc1O[C@H]1CC[C@H](CC(=O)O)C1` (racemic) [Example 64, (±)-trans-2-[3-({6-[5-({[(4-fluoro-butyl)(methyl)carbamoyl]oxy}methyl)-1-methyl-1H-1,2,3-triazol-4-yl]-2-methylpyridin-3-yl}oxy)cyclo-pentyl]acetic acid], with 165 nM; and `Cc1nc(-c2nnn(C)c2COC(=O)N(C)CCCF)ccc1O[C@H]1CC[C@H](CC(=O)O)C1` (racemic) [Example 65, (±)-trans-2-[3-({6-[5-({[(3-fluoro-propyl)(methyl)carbamoyl]oxy}methyl)-1-methyl-1H-1,2,3-triazol-4-yl]-2-methylpyridin-3-yl}oxy)cyclo-pentyl]acetic acid], with 944 nM.
The value for `Cc1nc(-c2nnn(C)c2COC(=O)N2CC3(CCC3)C2)ccc1O[C@H]1CC[C@H](CC(=O)O)C1` (racemic) [Example 66, (±)-trans-2-[3-({6-[5-({2-azaspiro[3.3]heptane-2-carbonyloxy}methyl)-1-methyl-1H-1,2,3-triazol-4-yl]-2-methylpyridin-3-yl}oxy)cyclopentyl]acetic acid] was 452 nM.
Consider `Cc1nc(-c2nnn(C)c2COC(=O)N2CCC3(CC3)C2)ccc1O[C@H]1CC[C@H](CC(=O)O)C1` (racemic) [Example 67, (±)-trans-2-[3-({6-[5-({5-azaspiro[2.4]heptane-5-carbonyloxy}methyl)-1-methyl-1H-1,2,3-triazol-4-yl]-2-methylpyridin-3-yl}oxy)cyclopentyl]acetic acid], for which the IC50 came out at 770 nM.
Then `CCCCN(C)C(=O)OCc1c(-c2nc(C)c(O[C@H]3CC[C@H](CC(=O)O)C3)cc2F)nnn1C` (racemic) [Example 68, (±)-trans-2-[3-({6-[5-({[butyl(methyl)carbamoyl]oxy}methyl)-1-methyl-1H-1,2,3-triazol-4-yl]-5-fluoro-2-methyl-pyridin-3-yl}oxy)cyclopentyl]acetic acid], with 147 nM; and `Cc1nc(-c2nnn(C)c2COC(=O)N(C)C2CCCC2)c(F)cc1O[C@H]1CC[C@H](CC(=O)O)C1` (racemic) [Example 69, (±)-trans-2-[3-({6-[5-({[cyclopentyl(methyl)carbamoyl]oxy}methyl)-1-methyl-1H-1,2,3-triazol-4-yl]-5-fluoro-2-methylpyridin-3-yl}oxy)cyclopentyl]acetic acid], with 210 nM; and `Cc1nc(-c2nnn(C)c2COC(=O)N(C)CC2CCC2)c(F)cc1O[C@H]1CC[C@H](CC(=O)O)C1` (racemic) [Example 70, (±)-trans-2-[3-({6-[5-({[(cyclobutyl-methyl)(methyl)carbamoyl]oxy}methyl)-1-methyl-1H-1,2,3-triazol-4-yl]-5-fluoro-2-methyl-pyridin-3-yl}oxy)cyclopentyl]acetic acid], with 220 nM.
With `Cc1noc(-c2ccc(O[C@H]3CC[C@@H](C(=O)O)C3)cc2)c1COC(=O)N(C)C1CCCC1` (racemic) [Example 71, (±)-cis-3-{4-[4-({[cyclopentyl(methyl)carbamoyl]oxy}methyl)-3-methyl-1,2-oxazol-5-yl]phenoxy}cyclopentane-1-carboxylic acid], the IC50 came to 205 nM.
Consider `Cc1noc(-c2ccc(O[C@H]3CC[C@H](C(=O)O)C3)cc2)c1COC(=O)N(C)CCC(C)C` (racemic) [Example 72, (±)-trans-3-{4-[3-methyl-4-({[methyl(3-methylbutyl)carbamoyl]oxy}methyl)-1,2-oxazol-5-yl]phenoxy}cyclopentane-1-carboxylic acid], for which the IC50 came to 254 nM.
For the molecule `Cc1noc(-c2ccc(O[C@H]3CC[C@@H](C(=O)O)C3)cc2)c1COC(=O)N(C)CCC(C)C` (racemic) [Example 73, (±)-cis-3-{4-[3-methyl-4-({[methyl(3-methylbutyl)carbamoyl]oxy}methyl)-1,2-oxazol-5-yl]phenoxy}cyclo-pentane-1-carboxylic acid], the IC50 stood at 1180 nM.
For `Cc1nc(-c2nnn(C)c2COC(=O)N(C)CC2CCC2)ccc1O[C@H]1CC[C@@H](C(=O)O)C1` (racemic) [Example 74, (±)-cis-3-({6-[5-({[cyclobutylmethyl)(methyl)carbamoyl]oxy}methyl)-1-methyl-1H-1,2,3-triazol-4-yl]-2-methylpyridin-3-yl}oxy)cyclopentane-1-carboxylic acid], the concentration for half-maximal inhibition (IC50) worked out at 101 nM.
Regarding `Cc1nc(-c2nnn(C)c2COC(=O)N(C)CC2CCC2)ccc1O[C@H]1CC[C@H](C(=O)O)C1` (racemic) [Example 75, (±)-trans-3-({6-[5-({[(cyclobutyl-methyl)(methyl)carbamoyl]oxy}methyl)-1-methyl-1H-1,2,3-triazol-4-yl]-2-methylpyridin-3-yl}oxy)cyclo-pentane-1-carboxylic acid], the concentration for half-maximal inhibition (IC50) was 42.5 nM.
With `Cc1nc(-c2onc(C)c2COC(=O)N(C)C2CCCC2)ccc1O[C@H]1CC[C@@H](C(=O)O)C1` (racemic) [Example 76, (±)-cis-3-({6-[4-({[cyclopentyl(methyl)carbamoyl]oxy}methyl)-3-methyl-1,2-oxazol-5-yl]-2-methyl-pyridin-3-yl}oxy)cyclopentane-1-carboxylic acid], the half-maximal inhibitory concentration (IC50) turned out to be 40 nM.
